The target of data set [1] is T1, LXRα (Homo sapiens, UniProt Q13133).
T1 sequence (Q13133 1-447): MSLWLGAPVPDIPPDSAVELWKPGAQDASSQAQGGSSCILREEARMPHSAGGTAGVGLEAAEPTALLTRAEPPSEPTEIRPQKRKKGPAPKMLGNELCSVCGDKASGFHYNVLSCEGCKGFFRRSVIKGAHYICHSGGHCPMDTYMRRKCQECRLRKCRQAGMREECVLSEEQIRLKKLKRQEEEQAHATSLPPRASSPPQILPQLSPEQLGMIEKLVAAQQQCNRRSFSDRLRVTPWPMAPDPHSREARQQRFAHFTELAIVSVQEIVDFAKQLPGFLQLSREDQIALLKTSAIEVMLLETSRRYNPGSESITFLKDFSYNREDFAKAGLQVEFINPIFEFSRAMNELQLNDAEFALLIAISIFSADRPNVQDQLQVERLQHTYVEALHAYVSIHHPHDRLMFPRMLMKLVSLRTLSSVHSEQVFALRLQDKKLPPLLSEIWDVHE
In words: FRET (HTRF) LXRα receptor control. Format: binding. The conditions noted are these: FIG. 5B bottom panel. (In general: Time-resolved FRET reads energy transfer from a long-lived donor to a nearby acceptor.)

In data set [2] the target is T1, LXRα. The experiment in a line: ELISA peptide sensor assay, LXRα control. Format: binding. To be noted: FIG. 5C bottom panel. The source says: A peptide sensor was used.
Data set [3] relates to HNF4α, LXRα, RXRα and LXRβ ligand-binding domains fused to Gal4 DBD. The experiment in a line: GAL4 DBD fusions with LBDs of other nuclear receptors, luciferase reporter in HepG2 cells. To be noted: 50 μM CDCA, FIG. 1A. The class given is cell-based.
In data set [4] the test system is FXR / cyp7a promoter. The conditions noted are these: HepG2 cells.
Data set [5] has as its target T2, full-length FXR (Homo sapiens, UniProt Q96RI1).
T2 construct: a plasmid expressing full-length FXR (PFXR); expressed in transfected cells; host or cells: HepG2
T2 sequence (Q96RI1 1-486): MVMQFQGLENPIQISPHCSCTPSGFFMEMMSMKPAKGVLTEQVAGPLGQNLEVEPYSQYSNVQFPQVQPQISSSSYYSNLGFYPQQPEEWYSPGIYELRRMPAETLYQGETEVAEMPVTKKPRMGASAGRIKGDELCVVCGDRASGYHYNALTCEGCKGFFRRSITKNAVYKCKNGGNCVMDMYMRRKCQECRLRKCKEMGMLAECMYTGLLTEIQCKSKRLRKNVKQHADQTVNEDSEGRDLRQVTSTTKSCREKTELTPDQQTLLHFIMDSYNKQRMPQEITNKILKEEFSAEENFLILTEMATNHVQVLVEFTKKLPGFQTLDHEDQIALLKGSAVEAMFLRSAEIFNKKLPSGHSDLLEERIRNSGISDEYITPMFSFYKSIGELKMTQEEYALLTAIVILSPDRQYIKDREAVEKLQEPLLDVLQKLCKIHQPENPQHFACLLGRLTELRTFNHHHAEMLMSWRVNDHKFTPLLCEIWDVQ
The experiment in a line: pGL3 3X FXRE luciferase reporter with full-length FXR in HepG2 cells. The class given is cell-based. To be noted: panel of bile acids, FIG. 4C. The source says: The ability of different bile acids and derivatives to activate FXR-mediated transactivation was also examined.

Entries after “also recorded” stand apart in the source; their conditions may differ.

In the case of `C[C@H](CCC1OC1(C)C)[C@H]1CC[C@H]2[C@@H]3CC=C4C[C@@H](O)CC[C@]4(C)[C@H]3CC[C@]12C` (stereo partly drawn) [24,25 epoxycholesterol], the “binding of LXRα receptor control by FRET” value in data set [1] is “affected”. The “binding of sensor peptide to LXRα control (ELISA)” value in data set [2] is “increased binding”.
As for `C[C@H](CCC(=O)O)[C@H]1CC[C@H]2[C@@H]3[C@H](O)C[C@@H]4C[C@H](O)CC[C@]4(C)[C@H]3CC[C@]12C` [CDCA, chenodeoxycholic acid], the “activation of ligand binding domains of other nuclear receptors fused to GAL4 DBD” value in data set [3] is recorded as “not activated”. For the same compound, the “suppression of CYP7 expression by nuclear receptors in presence of CDCA” value in data set [4] (10 μM CDCA, FXR vs CPF, HNF4α, LXRα, RXRα, FIG. 2A) is listed as “Only FXR suppressed CYP7 expression”. Also, the “FXR-mediated suppression of CYP7 expression, rank among bile acids” value in data set [4] (panel of bile acids, FIG. 4D) is “highest level of suppression; also recorded: largest repression”.
Take `CC(CCC(=O)NCC(=O)O)C1CCC2C3C(O)CC4CC(O)CCC4(C)C3CCC12C` (stereo not drawn) [GCDCA, glycochenodeoxycholic acid]: the “induction of luciferase reporter activity (FXR-mediated transactivation), rank among bile acids” value in data set [5] was “greatest induction”.

The values above are taken from patent publication US6465258B1, “FXR receptor-mediated modulation cholesterol metabolism” (Tularik, Inc., priority 1999, dated 2002).
